Test results reported in publication PMC5218480 (PLoS ONE, 2017).

Test system: MV-4-11 cells
Test: Gene expression microarray analysis (Affymetrix PrimeView) and GSEA
Assay type: cell-based, human
Parameters: RFU PODN (11730768_x_at) / Fold change /veh PODN (11730768_x_at) / RFU LINC00158 (11744669_a_at) / Fold change /veh LINC00158 (11744669_a_at) / RFU DUSP10 (11751237_a_at) / Fold change /veh DUSP10 (11751237_a_at) / RFU ID3 (11757404_x_at) / Fold change /veh ID3 (11757404_x_at) / RFU PLEKHG5 (11737974_s_at) / Fold change /veh PLEKHG5 (11737974_s_at) / RFU LRRC4B (11730491_at) / Fold change /veh LRRC4B (11730491_at) / RFU GIMAP4 (11747438_a_at) / Fold change /veh GIMAP4 (11747438_a_at) / RFU KRT8 (11758183_x_at) / Fold change /veh KRT8 (11758183_x_at) / RFU CNN1 (11734310_a_at) / Fold change /veh CNN1 (11734310_a_at) / RFU VPS37D (11726825_at) / Fold change /veh VPS37D (11726825_at) / RFU C10orf10 (11716522_x_at) / Fold change /veh C10orf10 (11716522_x_at) / RFU KIR2DL2 /// KIR2DL4 /// KIR2DL5A /// KIR2DL5B /// KIR2DS1 /// KIR2DS2 /// KIR2DS3 /// KIR2DS4 /// KIR3DL3 /// KIR3DL3 /// KIR3DS1 (11738374_at) / Fold change /veh KIR2DL2 /// KIR2DL4 /// KIR2DL5A /// KIR2DL5B /// KIR2DS1 /// KIR2DS2 /// KIR2DS3 /// KIR2DS4 /// KIR3DL3 /// KIR3DL3 /// KIR3DS1 (11738374_at) / RFU C1QL1 (11718748_at) / Fold change /veh C1QL1 (11718748_at) / RFU TMPRSS4 (11747572_a_at) / Fold change /veh TMPRSS4 (11747572_a_at) / RFU HAMP (11756126_x_at) / Fold change /veh HAMP (11756126_x_at) / RFU RNFT2 (11725882_a_at) / Fold change /veh RNFT2 (11725882_a_at) / RFU NR4A2 (11747474_a_at) / Fold change /veh NR4A2 (11747474_a_at) / RFU ABCC12 (11746883_a_at) / Fold change /veh ABCC12 (11746883_a_at) / RFU TMEM136 (11760407_x_at) / Fold change /veh TMEM136 (11760407_x_at) / RFU CLDN22 /// WWC2 (11732394_at) / Fold change /veh CLDN22 /// WWC2 (11732394_at) / RFU HLA-DPB1 (11760878_x_at) / Fold change /veh HLA-DPB1 (11760878_x_at) / RFU SPINT1 (11716480_a_at) / Fold change /veh SPINT1 (11716480_a_at) / RFU GAP43 (11754022_s_at) / Fold change /veh GAP43 (11754022_s_at) / RFU A4GNT (11735810_at) / Fold change /veh A4GNT (11735810_at) / RFU PRB3 (11715151_x_at) / Fold change /veh PRB3 (11715151_x_at) / RFU TUBB4B (11761932_at) / Fold change /veh TUBB4B (11761932_at) / RFU CAPN14 (11732068_a_at) / Fold change /veh CAPN14 (11732068_a_at) / RFU TMCC2 (11721928_a_at) / Fold change /veh TMCC2 (11721928_a_at) / RFU IRGQ (11745062_a_at) / Fold change /veh IRGQ (11745062_a_at) / RFU FAM174B (11720279_a_at) / Fold change /veh FAM174B (11720279_a_at) / RFU TMPRSS4 (11748680_a_at) / Fold change /veh TMPRSS4 (11748680_a_at) / RFU FAM212B (11763350_a_at) / Fold change /veh FAM212B (11763350_a_at) / RFU PLEKHG5 (11743358_a_at) / Fold change /veh PLEKHG5 (11743358_a_at) / RFU ZSCAN30 (11745921_a_at) / Fold change /veh ZSCAN30 (11745921_a_at) / RFU CMKLR1 (11741424_a_at) / Fold change /veh CMKLR1 (11741424_a_at) / RFU LOC101060620 /// MAPK8IP1 (11723275_at) / Fold change /veh LOC101060620 /// MAPK8IP1 (11723275_at) / RFU SPTSSB (11747773_x_at) / Fold change /veh SPTSSB (11747773_x_at) / RFU PRSS12 (11739890_at) / Fold change /veh PRSS12 (11739890_at) / RFU BIN1 (11741810_x_at) / Fold change /veh BIN1 (11741810_x_at) / RFU WNT11 (11732464_a_at) / Fold change /veh WNT11 (11732464_a_at) / RFU C10orf10 (11716521_a_at) / Fold change /veh C10orf10 (11716521_a_at) / RFU C5orf56 (11738089_at) / Fold change /veh C5orf56 (11738089_at) / RFU CYB561 (11721691_x_at) / Fold change /veh CYB561 (11721691_x_at) / RFU ANKRD19P (11752326_a_at) / Fold change /veh ANKRD19P (11752326_a_at) / RFU OR2T12 /// OR2T33 /// OR2T8 (11738714_s_at) / Fold change /veh OR2T12 /// OR2T33 /// OR2T8 (11738714_s_at) / RFU VCAN (11748164_a_at) / Fold change /veh VCAN (11748164_a_at) / RFU JSRP1 (11732532_at) / Fold change /veh JSRP1 (11732532_at) / RFU KRTAP10-11 (11738290_x_at) / Fold change /veh KRTAP10-11 (11738290_x_at) / RFU MYO3A (11730013_a_at) / Fold change /veh MYO3A (11730013_a_at) / RFU EBF3 (11725865_a_at) / Fold change /veh EBF3 (11725865_a_at) / RFU CAMK2N1 (11719241_x_at) / Fold change /veh CAMK2N1 (11719241_x_at) / RFU C5orf56 (11738088_a_at) / Fold change /veh C5orf56 (11738088_a_at) / RFU OLFML3 (11715873_a_at) / Fold change /veh OLFML3 (11715873_a_at) / RFU LOC100653217 /// NTM (11731650_a_at) / Fold change /veh LOC100653217 /// NTM (11731650_a_at) / RFU MAPK11 (11762145_a_at) / Fold change /veh MAPK11 (11762145_a_at) / RFU FIZ1 (11724087_x_at) / Fold change /veh FIZ1 (11724087_x_at) / RFU OASL (11726364_x_at) / Fold change /veh OASL (11726364_x_at) / RFU SOX15 (11748057_x_at) / Fold change /veh SOX15 (11748057_x_at) / RFU CD79A (11719716_a_at) / Fold change /veh CD79A (11719716_a_at) / RFU HIST1H1D (11736915_at) / Fold change /veh HIST1H1D (11736915_at) / RFU CASKIN2 (11723855_a_at) / Fold change /veh CASKIN2 (11723855_a_at) / RFU LOC730098 (11760151_x_at) / Fold change /veh LOC730098 (11760151_x_at) / RFU OR4N2 (11742367_at) / Fold change /veh OR4N2 (11742367_at) / RFU PRRT2 (11749266_a_at) / Fold change /veh PRRT2 (11749266_a_at) / RFU SNX32 (11753110_a_at) / Fold change /veh SNX32 (11753110_a_at) / RFU CDHR5 (11726645_a_at) / Fold change /veh CDHR5 (11726645_a_at) / RFU RCAN1 (11760418_a_at) / Fold change /veh RCAN1 (11760418_a_at) / RFU FAM167A (11723789_a_at) / Fold change /veh FAM167A (11723789_a_at) / RFU FAM26E (11764081_at) / Fold change /veh FAM26E (11764081_at) / RFU ISYNA1 (11749810_s_at) / Fold change /veh ISYNA1 (11749810_s_at) / RFU ACY1 (11761880_at) / Fold change /veh ACY1 (11761880_at) / RFU 11764098_at / Fold change /veh 11764098_at / RFU SAMD14 (11745864_x_at) / Fold change /veh SAMD14 (11745864_x_at) / RFU NPB (11741838_a_at) / Fold change /veh NPB (11741838_a_at) / RFU TMPRSS6 (11731388_a_at) / Fold change /veh TMPRSS6 (11731388_a_at) / RFU KRTAP10-2 (11738614_at) / Fold change /veh KRTAP10-2 (11738614_at) / RFU ARHGAP8 /// PRR5-ARHGAP8 (11727945_x_at) / Fold change /veh ARHGAP8 /// PRR5-ARHGAP8 (11727945_x_at) / RFU KRTAP5-7 /// NADSYN1 (11734609_at) / Fold change /veh KRTAP5-7 /// NADSYN1 (11734609_at) / RFU RASL12 (11751679_a_at) / Fold change /veh RASL12 (11751679_a_at) / RFU CDKN2B (11736163_a_at) / Fold change /veh CDKN2B (11736163_a_at) / RFU PRF1 (11729649_at) / Fold change /veh PRF1 (11729649_at) / RFU, ZNF638 /// ZNF638-IT1 / Fold change vs veh, ZNF638 /// ZNF638-IT1 / RFU, PANK3 / Fold change vs veh, PANK3 / RFU, SH3YL1 / Fold change vs veh, SH3YL1 / RFU, ZEB2 / Fold change vs veh, ZEB2 / RFU, NRIP1 / Fold change vs veh, NRIP1 / RFU, PTTG1IP / Fold change vs veh, PTTG1IP / RFU, CAPN2 / Fold change vs veh, CAPN2 / RFU, MED14 / Fold change vs veh, MED14 / RFU, SNORA58 / Fold change vs veh, SNORA58 / RFU, C1orf63 / Fold change vs veh, C1orf63 / RFU, LRRFIP1 / Fold change vs veh, LRRFIP1 / RFU, NDUFAF7 / Fold change vs veh, NDUFAF7 / RFU, SLC12A2 / Fold change vs veh, SLC12A2 / RFU, IBTK / Fold change vs veh, IBTK / RFU, ESF1 / Fold change vs veh, ESF1 / Fold change vs veh, TMEM50B / RFU, TAOK1 / Fold change vs veh, TAOK1 / RFU, ACBD3 / Fold change vs veh, ACBD3 / RFU, TMA16 / Fold change vs veh, TMA16 / RFU, RWDD3 / Fold change vs veh, RWDD3 / RFU, BCAT1 / Fold change vs veh, BCAT1 / RFU, EDEM3 / Fold change vs veh, EDEM3 / RFU, TMEM33 / Fold change vs veh, TMEM33 / RFU, WDR75 / Fold change vs veh, WDR75 / RFU, AHCTF1 / Fold change vs veh, AHCTF1 / RFU, TFRC / Fold change vs veh, TFRC / RFU, ZDHHC17 / Fold change vs veh, ZDHHC17 / RFU, NOM1 / Fold change vs veh, NOM1 / RFU, ARL8B / Fold change vs veh, ARL8B / RFU, ZBTB11 / Fold change vs veh, ZBTB11 / RFU, TAMM41 / Fold change vs veh, TAMM41 / RFU, KIAA1704 /// LOC100996395 / Fold change vs veh, KIAA1704 /// LOC100996395 / RFU, ING1 / Fold change vs veh, ING1 / RFU, TRMT61B / Fold change vs veh, TRMT61B / RFU, FUBP3 / Fold change vs veh, FUBP3 / RFU, TP53 / Fold change vs veh, TP53 / RFU, TNKS2 / Fold change vs veh, TNKS2 / RFU, ZFP14 / Fold change vs veh, ZFP14 / RFU, ACTR2 / Fold change vs veh, ACTR2 / RFU, PPP3R1 / Fold change vs veh, PPP3R1 / RFU, PIK3R1 / Fold change vs veh, PIK3R1 / RFU, HNRNPA1 / Fold change vs veh, HNRNPA1 / RFU, RNF170 / Fold change vs veh, RNF170 / RFU, ZNF28 / Fold change vs veh, ZNF28 / RFU, RNGTT / Fold change vs veh, RNGTT / RFU, OGT / Fold change vs veh, OGT / RFU, BRD1 / Fold change vs veh, BRD1 / RFU, MARS / Fold change vs veh, MARS / RFU, ZNF655 / Fold change vs veh, ZNF655 / RFU, FAHD1 / Fold change vs veh, FAHD1 / RFU, BDP1 / Fold change vs veh, BDP1 / RFU, LRRCC1 / Fold change vs veh, LRRCC1 / RFU, ARID1A / Fold change vs veh, ARID1A / RFU, ZNF146 / Fold change vs veh, ZNF146 / RFU, ZNF330 / Fold change vs veh, ZNF330 / RFU, GPN3 / Fold change vs veh, GPN3 / RFU, C9orf123 / Fold change vs veh, C9orf123 / RFU, N4BP2L2 / Fold change vs veh, N4BP2L2 / RFU, ARFIP1 / Fold change vs veh, ARFIP1 / RFU, FAM179B / Fold change vs veh, FAM179B / RFU, BCL10 / Fold change vs veh, BCL10 / RFU, UHRF1BP1L / Fold change vs veh, UHRF1BP1L / RFU, BET1 / Fold change vs veh, BET1 / RFU, CNOT2 / Fold change vs veh, CNOT2 / RFU, ZNF268 / Fold change vs veh, ZNF268 / Fold change vs veh, ZNF507 / RFU, DGCR2 / Fold change vs veh, DGCR2 / RFU, WDSUB1 / Fold change vs veh, WDSUB1 / Fold change vs veh, HSP90B1 /// MIR3652 / RFU, ADSS / Fold change vs veh, ADSS / RFU, GK / Fold change vs veh, GK / RFU, ZNF148 / Fold change vs veh, ZNF148 / RFU, TAF9 / Fold change vs veh, TAF9 / RFU, SLC1A5 / Fold change vs veh, SLC1A5 / RFU, SLMO2 / Fold change vs veh, SLMO2 / RFU, ABCC4 / Fold change vs veh, ABCC4 / RFU, LOC101060439 /// RAP1B / Fold change vs veh, LOC101060439 /// RAP1B / RFU, RFX7 / Fold change vs veh, RFX7 / RFU, GTPBP10 / Fold change vs veh, GTPBP10 / RFU, CNEP1R1 / Fold change vs veh, CNEP1R1 / RFU, BIVM-ERCC5 /// ERCC5 / Fold change vs veh, BIVM-ERCC5 /// ERCC5 / RFU, ILF3 / Fold change vs veh, ILF3 / RFU 11762660_at / Fold change /veh 11762660_at / RFU VCAN (11757783_s_at) / Fold change /veh VCAN (11757783_s_at) / RFU DDX43 (11728927_at) / Fold change /veh DDX43 (11728927_at) / RFU KRT8 (11758188_x_at) / Fold change /veh KRT8 (11758188_x_at) / RFU NKD1 (11759106_at) / Fold change /veh NKD1 (11759106_at) / RFU SRD5A1 (11742802_a_at) / Fold change /veh SRD5A1 (11742802_a_at) / RFU TPSAB1 /// TPSB2 (11721975_s_at) / Fold change /veh TPSAB1 /// TPSB2 (11721975_s_at) / RFU GSTM3 (11746129_a_at) / Fold change /veh GSTM3 (11746129_a_at) / RFU IL23R (11737362_x_at) / Fold change /veh IL23R (11737362_x_at) / RFU TMEM51 (11727254_a_at) / Fold change /veh TMEM51 (11727254_a_at) / RFU PIWIL2 (11732686_x_at) / Fold change /veh PIWIL2 (11732686_x_at) / RFU ORM1 (11744905_x_at) / Fold change /veh ORM1 (11744905_x_at) / RFU CCDC152 (11743942_at) / Fold change /veh CCDC152 (11743942_at) / RFU ECM1 (11717891_a_at) / Fold change /veh ECM1 (11717891_a_at) / RFU IL23R (11748794_a_at) / Fold change /veh IL23R (11748794_a_at) / RFU TNFAIP8L3 (11732012_x_at) / Fold change /veh TNFAIP8L3 (11732012_x_at) / RFU MBOAT4 (11741988_at) / Fold change /veh MBOAT4 (11741988_at) / RFU 11764193_at / Fold change /veh 11764193_at / RFU TMEM53 (11763286_at) / Fold change /veh TMEM53 (11763286_at) / RFU MAGEB2 (11727129_at) / Fold change /veh MAGEB2 (11727129_at) / RFU TMEM200A (11744735_a_at) / Fold change /veh TMEM200A (11744735_a_at) / RFU CCDC152 (11751479_a_at) / Fold change /veh CCDC152 (11751479_a_at) / RFU FAM211A (11726209_a_at) / Fold change /veh FAM211A (11726209_a_at) / RFU RGS16 (11746705_a_at) / Fold change /veh RGS16 (11746705_a_at) / RFU VCAN (11755009_s_at) / Fold change /veh VCAN (11755009_s_at) / RFU RHOB (11743442_s_at) / Fold change /veh RHOB (11743442_s_at) / RFU RGS16 (11720943_a_at) / Fold change /veh RGS16 (11720943_a_at) / RFU RGS16 (11720944_at) / Fold change /veh RGS16 (11720944_at) / RFU, VPS4B / Fold change vs veh, VPS4B / RFU, CREB1 / Fold change vs veh, CREB1 / RFU, DNAJC13 / Fold change vs veh, DNAJC13 / RFU, GNAQ / Fold change vs veh, GNAQ / RFU, CDK5R1 / Fold change vs veh, CDK5R1 / RFU, ZRANB3 / Fold change vs veh, ZRANB3 / RFU, CUL4A / Fold change vs veh, CUL4A / RFU, CCNY / Fold change vs veh, CCNY / RFU, UFL1 / Fold change vs veh, UFL1 / RFU, COG3 / Fold change vs veh, COG3 / RFU, DIAPH2 / Fold change vs veh, DIAPH2 / RFU, SKA2 / Fold change vs veh, SKA2 / RFU, AFF3 / Fold change vs veh, AFF3 / RFU, LMF1 / Fold change vs veh, LMF1 / RFU, IPO11 / Fold change vs veh, IPO11 / RFU, DFFB / Fold change vs veh, DFFB / RFU, FOXP1 / Fold change vs veh, FOXP1 / RFU, CARD8 / Fold change vs veh, CARD8 / RFU, STRN3 / Fold change vs veh, STRN3 / RFU, ADK / Fold change vs veh, ADK / RFU, RASSF2 / Fold change vs veh, RASSF2 / RFU, WIPF1 / Fold change vs veh, WIPF1 / RFU, LARP1B / Fold change vs veh, LARP1B / RFU, RASA1 / Fold change vs veh, RASA1 / RFU, RB1 / Fold change vs veh, RB1 / RFU, PPFIA1 / Fold change vs veh, PPFIA1 / RFU, MAT2A / Fold change vs veh, MAT2A / RFU, CCT5 / Fold change vs veh, CCT5 / RFU, WDR92 / Fold change vs veh, WDR92 / RFU, CUX1 / Fold change vs veh, CUX1 / RFU, TTC7A / Fold change vs veh, TTC7A / RFU, TMEM135 / Fold change vs veh, TMEM135 / RFU, DEPTOR / Fold change vs veh, DEPTOR / RFU, CPM / Fold change vs veh, CPM / RFU, DNAJB6 / Fold change vs veh, DNAJB6 / RFU, CACNA2D3 / Fold change vs veh, CACNA2D3 / RFU, DTX4 / Fold change vs veh, DTX4 / RFU, TFCP2 / Fold change vs veh, TFCP2 / RFU, GMCL1 /// GMCL1P1 / Fold change vs veh, GMCL1 /// GMCL1P1 / RFU, AEBP2 / Fold change vs veh, AEBP2 / RFU, SNHG1 /// SNORD22 /// SNORD25 /// SNORD26 /// SNORD27 /// SNORD28 /// SNORD29 /// SNORD31 / Fold change vs veh, SNHG1 /// SNORD22 /// SNORD25 /// SNORD26 /// SNORD27 /// SNORD28 /// SNORD29 /// SNORD31 / Fold change (Aza/veh), C12orf56 (ProbeSet 11735607_a_at) / Fold change (ACY-1035/veh), C12orf56 (ProbeSet 11735607_a_at) / Fold change (Aza/veh), FGFR1OP (ProbeSet 11751329_s_at) / Fold change (ACY-1035/veh), FGFR1OP (ProbeSet 11751329_s_at) / Fold change (Aza/veh), VPS36 (ProbeSet 11739960_a_at) / Fold change (ACY-1035/veh), VPS36 (ProbeSet 11739960_a_at) / RFU SYPL1 (11715823_x_at) / Fold change /veh SYPL1 (11715823_x_at) / RFU IGFBP7 (11715501_s_at) / Fold change /veh IGFBP7 (11715501_s_at) / RFU REEP3 (11722064_at) / Fold change /veh REEP3 (11722064_at) / RFU IGLL1 (11728026_x_at) / Fold change /veh IGLL1 (11728026_x_at): dose or concentration left out as unconfirmed
Details: ProbeSet 11753234_a_at; LIST B

With `Nc1ncn([C@@H]2O[C@H](CO)[C@@H](O)[C@H]2O)c(=O)n1` [azacitidine] the “RFU, TAMM41” value was 52.96 RFU.
